Patent publication US12295936B2, “Immunomodulating urea azalides” (Zoetis Services LLC, priority 2020, dated 2025)
≈ marks a conversion by molar mass, not a printed value. Entries after “also recorded” stand apart in the source; their conditions may differ. Like-named read-outs stand apart in the source and are kept apart here.

How the values were obtained:
IL-6 [1] = experiment: Plasma IL-6 biomarker in bovine M. haemolytica challenge; conditions: for IL-6 levels (plasma) in bovine M. haemolytica challenge: in vivo
IL-1β = experiment: LPS-stimulated whole bovine blood assay, MSD cytokine detection; format: cell-based; conditions: for IC50: Bos taurus, LPS-stimulated whole bovine blood, * = enhanced response at concentration indicating potential cytotoxicity; for IL-1β OS of LPS: overstimulation of IL-1β, LPS-stimulated bovine whole blood
H. somni = experiment: In-vitro MIC model (CLSI broth micro-dilution)
IL-6 [2] = experiment: LPS-stimulated whole bovine blood assay, MSD cytokine detection; format: cell-based; conditions: for IC50: Bos taurus, LPS-stimulated bovine whole blood, read-out: IL-6 (IC50 μM)
Source text: In order to correlate RNA sequencing data to cytokine changes the whole blood assay was utilized. […] The enhancement result represents an overall stimulation of cytokine levels due to cellular stress or potential toxicity with increasing concentrations of the compound, representing a typical bell shape response curve for immunomodulatory activity.

[3] = tested on: M. haemolytica (OSU-012103-BHI); conditions: for Back Transform LS % Lung with Lesions / Range % Lung with Lesions: sc
P. multocida 46572 = experiment: In vivo mouse lung infection challenge model (murine efficacy); design: species or system CD-1 female mice; conditions: for clinical efficacy in murine P. multocida infection: airway tissues collected longitudinally for transcriptomic analysis; for Mouse Murine Percent Survival: 20 mg/kg subcutaneous, harmonized against the comparative vehicle survival rate
Summary of the method: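 CD-1 female mice challenged intranasally with P. multocida 46572 at mid-log phase (target 5×10^2 CFU/mouse). Compounds given subcutaneously at 20 mg/kg in buffered (~pH 5.4) propylene glycol/monothioglycerol/water. Mortality observed Days 1–10, analysed by generalized mixed model; survival harmonized against vehicle survival rate.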

CD163 = CD163 expression by flow cytometry, blood of treated/challenged cattle; conditions: blood macrophages
M. haemolytica = experiment: In-vitro MIC model (CLSI broth micro-dilution); conditions: Mannheimia haemolytica
TNF-α = experiment: LPS-stimulated whole bovine blood assay, MSD cytokine detection; format: cell-based; conditions: for IC50: Bos taurus
P. multocida = experiment: In-vitro MIC model (CLSI broth micro-dilution); conditions: Pasteurella multocida
[4] = tested on: M. haemolytica (OSU-012103-BHI); experiment: In vivo bovine M. haemolytica intratracheal lung infection challenge model; conditions: for Mortality/Euthanization No, % / Mortality/Euthanization No, Number: surviving animals; for Significance to T01, mortality: p≤0.2
[5] = read-out: MIC to the M. haemolytica challenge strain
[6] = LPS-stimulated bovine whole blood, read-out: TNF-α (IC50 μM)
[7] = LPS-stimulated whole bovine blood, read-out: TNF-α IC50
[8] = Table 7 study, T04: 10 mg/kg subcutaneous, positive control
[9] = Table 9 study, T05: 10 mg/kg subcutaneous, positive control
[10] = 32 hours post challenge, dosed 24 hours prior to challenge
[11] = 4 independent studies with multiple blood donors, FIG. 4
[12] = Table 9 study, T03: 0.5 mg/kg subcutaneous
[13] = Table 9 study, T04: 2.5 mg/kg subcutaneous
[14] = Table 7 study, T02: 0.5 mg/kg subcutaneous
[15] = Table 7 study, T03: 2.5 mg/kg subcutaneous

In the case of `CCCNC[C@]1(O)[C@H](C)O[C@@H](O[C@H]2[C@H](C)[C@@H](O[C@@H]3O[C@H](C)C[C@H](NC)[C@H]3O)[C@](C)(O)C[C@@H](C)CN[C@H](C)[C@@H](O)[C@](C)(O)[C@@H](CC)OC(=O)[C@@H]2C)C[C@@]1(C)OC` [Example M9, (2R,3S,4R,5R,8R,10R,11R,12S,13S,14R)-2-ethyl-3,4,10-trihydroxy-13-(((2R,4R,5S,6S)-5-hydroxy-4-methoxy-4,6-dimethyl-5-((propylamino)methyl)-tetrahydro-2H-pyran-2-yl)oxy)-11-(((2S,3R,4S,6R)-3-hydroxy-6-methyl-4-(methylamino)tetrahydro-2H-pyran-2-yl)oxy)-3,5,8,10,12,14-hexamethyl-1-oxa-6-azacyclopentadecan-15-one, reference compound], the “IL-6 levels (plasma) in bovine M. haemolytica challenge” value (“IL-6 levels (plasma)” below) (IL-6 [1]) is reported as “significantly reduced; also recorded: downregulated”, the IC50 (IL-1β) is reported as about 250 µM and the “MIC Range” value (H. somni; H. somni (25) lung isolates at necropsy, natural BRD study) is reported as 8 to 64 µg/mL. It also gave an MIC50 (H. somni; Histophilus somni) of 32 µg/mL (≈ 40.4 µM), an MIC90 (H. somni; Histophilus somni) of 32 µg/mL (≈ 40.4 µM) and an IC50 (IL-6 [2]) of over 250 µM. For the same compound, the lung lesions ([3]; 10 mg/kg, separate study, saline control 31%) was 20%, the “clinical efficacy in murine P. multocida infection” value (P. multocida 46572) was “clinically efficacious” and the Mouse survival (P. multocida 46572; positive control, 20 mg/kg, P. multocida challenge) was 90-100%. For the same compound, the “CD163 expression in treated cattle” value (CD163) was “suppressed; also recorded: mitigates; also recorded: downregulated”, the MIC50 (M. haemolytica) was over 64 µg/mL and the MIC90 (M. haemolytica) was over 64 µg/mL. It also gave an MIC (M. haemolytica; ATCC33396, read-out: Comparative MIC's, M. haemolytica ATCC 33396) of 32 µg/mL (≈ 40.4 µM), an MIC (M. haemolytica; read-out: Comparative MIC's, M. haemolytica 12726) of 32 µg/mL (≈ 40.4 µM) and an MIC (M. haemolytica; read-out: Comparative MIC's, M. haemolytica 46571*) of 32 µg/mL (≈ 40.4 µM). For the same compound, the MIC (M. haemolytica; [5]) was over 64 µg/mL, the IC50 (TNF-α; [6]) was 250 µM and the IC50 (TNF-α; [7]) was about 250 µM. For the same compound, the MIC50 (P. multocida) was 16 µg/mL (≈ 20.2 µM), the MIC90 (P. multocida) was over 64 µg/mL and the MIC (P. multocida; ATCC43137, read-out: Comparative MIC's, P. multocida ATCC 43137) was 16 µg/mL (≈ 20.2 µM). For the same compound, the Mortality ([4]; 10 mg/kg, separate study, saline control 38.9%) was 13%, the Mortality ([4]; T02: 10 mg/kg subcutaneous Day -1, M. haemolytica challenge Day 0, 6 animals) was 1/6 and the Mortality ([4]; T04: 10 mg/kg subcutaneous Day -1, No challenge, 6 animals) was 0/6. For the same compound, the “Significance at .20 level to T01, lung lesions” value (from here on “Significance at .20 level to T01”) ([4]; Table 6 study, T04: 10 mg/kg subcutaneous) was “Yes”, the “Mortality/Euthanization Yes, %” value [4, 8] was 12.5% and the “Mortality/Euthanization Yes, Number” value [4, 8] was 3. The “Mortality/Euthanization No, %” value [4, 8] was 87.5%, the “Mortality/Euthanization No, Number” value [4, 8] was 21 and the “Significance to T01, mortality” value ([4]; Table 7 study, T04: 10 mg/kg subcutaneous) was “Yes”. The “Significance at .20 level to T01” value ([4]; Table 8 study, T05: 10 mg/kg subcutaneous) was “yes”, the “Mortality/Euthanization Yes, %” value [4, 9] was 13.0% and the “Mortality/Euthanization Yes, Number” value [4, 9] was 3. The “Mortality/Euthanization No, %” value [4, 9] was 87.0%, the “Mortality/Euthanization No, Number” value [4, 9] was 20 and the “Significance to T01, mortality” value ([4]; Table 9 study, T05: 10 mg/kg subcutaneous) was “Yes”.
In the case of `CCCNC[C@]1(O)[C@H](C)O[C@@H](O[C@H]2[C@H](C)[C@@H](O[C@@H]3O[C@H](C)C[C@H](N(C)C(=O)N(C)c4ccccc4)[C@H]3O)[C@](C)(O)C[C@@H](C)CN[C@H](C)[C@@H](O)[C@](C)(O)[C@@H](CC)OC(=O)[C@@H]2C)C[C@@]1(C)OC` [Example H-11, 1-((2S,3R,4S,6R)-2-(((2R,3S,4R,5R,8R,10R,11R,12S,13S,14R)-2-ethyl-3,4,10-trihydroxy-13-(((2R,4R,5S,6S)-5-hydroxy-4-methoxy-4,6-dimethyl-5-((propylamino)methyl)tetrahydro-2H-pyran-2-yl)oxy)-3,5,8,10,12,14-hexamethyl-15-oxo-1-oxa-6-azacyclopentadecan-11-yl)oxy)-3-hydroxy-6-methyltetrahydro-2H-pyran-4-yl)-1,3-dimethyl-3-phenylurea], the “reduction in IL-6 levels (geometric mean)” value (IL-6 [1]; [10]) is reported as 51%, the “reduction in IL-6 levels (median value)” value (IL-6 [1]; [10]) is reported as 43% and the “IL-6 levels (plasma)” value (IL-6 [1]) is reported as “reduced; also recorded: downregulated”. The “expression of IL-1β, LPS stimulated whole bovine blood” value (IL-1β; [11]) was “dose dependent reduction”, the IC50 (IL-1β) was 36 µM and the “IL-1β OS of LPS” value (IL-1β) was 32 µM. The MIC (H. somni; Histophilus somni) was over 64 µg/mL, the “expression of IL-6, LPS stimulated whole bovine blood” value (IL-6 [2]; [11]) was “dose dependent reduction” and the IC50 (IL-6 [2]) was 22 µM. The “Back Transform LS % Lung with Lesions” value ([3]; 0.5 mg/kg) was 28%, the “Range % Lung with Lesions” value ([3]; 0.5 mg/kg) was 0 to 68% and the “Back Transform LS % Lung with Lesions” value ([3]; 2.5 mg/kg) was 21%. The “Range % Lung with Lesions” value ([3]; 2.5 mg/kg) was 2 to 70%, the “Mouse Murine Percent Survival” value (P. multocida 46572; P. multocida challenge) was 36% and the “clinical efficacy in murine P. multocida infection” value (P. multocida 46572) was “clinically efficacious”. The “CD163 expression in treated cattle” value (CD163) was “reduced; also recorded: downregulated”, the MIC (M. haemolytica) was over 64 µg/mL and the “expression of TNF-α, LPS stimulated whole bovine blood” value (TNF-α; [11]) was “dose dependent reduction”. It also gave an IC50 (TNF-α; [6]) of 8 µM, an IC50 (TNF-α; [7]) of 8 µM and an MIC (P. multocida) of over 64 µg/mL. The “Significance at .20 level to T01” value ([4]; Table 8 study, T03: 0.5 mg/kg subcutaneous) was “No”, the “Significance at .20 level to T01” value ([4]; Table 8 study, T04: 2.5 mg/kg subcutaneous) was “Yes” and the “Mortality/Euthanization Yes, %” value [4, 12] was 16.7%. For the same compound, the “Mortality/Euthanization Yes, Number” value [4, 12] was 4, the “Significance to T01, mortality” value [4, 12] was “Yes” and the “Mortality/Euthanization No, %” value [4, 12] was 83.3%. For the same compound, the “Mortality/Euthanization No, Number” value [4, 12] was 20, the “Mortality/Euthanization Yes, %” value [4, 13] was 25.0% and the “Mortality/Euthanization Yes, Number” value [4, 13] was 6. For the same compound, the “Significance to T01, mortality” value [4, 13] was “No”, the “Mortality/Euthanization No, %” value [4, 13] was 75.0% and the “Mortality/Euthanization No, Number” value [4, 13] was 18. For the same compound, the “number of blood neutrophils” value ([4]; treatment 24 hours prior to challenge, FIG. 8) was “reduced”.
For `CCCNC[C@]1(O)[C@H](C)O[C@@H](O[C@H]2[C@H](C)[C@@H](O[C@@H]3O[C@H](C)C[C@H](N(C)C(=O)Nc4ccccc4)[C@H]3O)[C@](C)(O)C[C@@H](C)CN[C@H](C)[C@@H](O)[C@](C)(O)[C@@H](CC)OC(=O)[C@@H]2C)C[C@@]1(C)OC` [Example H-91, 1-((2S,3R,4S,6R)-2-(((2R,3S,4R,5R,8R,10R,11R,12S,13S,14R)-2-ethyl-3,4,10-trihydroxy-13-(((2R,4R,5S,6S)-5-hydroxy-4-methoxy-4,6-dimethyl-5-((propylamino)methyl)tetrahydro-2H-pyran-2-yl)oxy)-3,5,8,10,12,14-hexamethyl-15-oxo-1-oxa-6-azacyclopentadecan-11-yl)oxy)-3-hydroxy-6-methyltetrahydro-2H-pyran-4-yl)-1-methyl-3-phenylurea], the “IL-6 levels (plasma)” value (IL-6 [1]) was “reduction; also recorded: downregulated”, the IC50 (IL-1β) was 103 µM and the “IL-1β OS of LPS” value (IL-1β) was 130 µM. The MIC (H. somni; Histophilus somni) was over 64 µg/mL, the IC50 (IL-6 [2]) was 181 µM and the “Back Transform LS % Lung with Lesions” value ([3]; 0.5 mg/kg) was 8%. For the same compound, the “Range % Lung with Lesions” value ([3]; 0.5 mg/kg) was 0 to 39%, the “Back Transform LS % Lung with Lesions” value ([3]; 2.5 mg/kg) was 9% and the “Range % Lung with Lesions” value ([3]; 2.5 mg/kg) was 0 to 58%. The “Mouse Murine Percent Survival” value (P. multocida 46572; P. multocida challenge) was 38%, the “clinical efficacy in murine P. multocida infection” value (P. multocida 46572) was “clinically efficacious” and the “CD163 expression in treated cattle” value (CD163) was “suppressed; also recorded: reduction; also recorded: downregulated”. The MIC (M. haemolytica) was over 256 µg/mL, the MIC (M. haemolytica; read-out: MIC against all M. haemolytica target pathogens tested) was over 256 µg/mL and the MIC (M. haemolytica; [5]) was over 256 µg/mL. For the same compound, the IC50 (TNF-α; [6]) was 85 µM, the IC50 (TNF-α; [7]) was 90 µM and the MIC (P. multocida) was over 256 µg/mL. For the same compound, the “Significance at .20 level to T01” value ([4]; Table 6 study, T02: 0.5 mg/kg subcutaneous) was “Yes”, the “Significance at .20 level to T01” value ([4]; Table 6 study, T03: 2.5 mg/kg subcutaneous) was “Yes” and the “Mortality/Euthanization Yes, %” value [4, 14] was 0%. For the same compound, the “Mortality/Euthanization Yes, Number” value [4, 14] was 0, the “Significance to T01, mortality” value [4, 14] was “Yes” and the “Mortality/Euthanization No, %” value [4, 14] was 100%. For the same compound, the “Mortality/Euthanization No, Number” value [4, 14] was 23, the “Mortality/Euthanization Yes, %” value [4, 15] was 8.3% and the “Mortality/Euthanization Yes, Number” value [4, 15] was 2. For the same compound, the “Significance to T01, mortality” value [4, 15] was “Yes”, the “Mortality/Euthanization No, %” value [4, 15] was 91.7% and the “Mortality/Euthanization No, Number” value [4, 15] was 22.
